Values quoted from earlier work, collected in patent US12318470B2, “Agent for dyeing keratinuos material, comprising aminosilicone, a chromophoric compound and an addition product of C1-C6 alkylene oxide(s) to the esters of fatty acids and aromatic alcohols” (Henkel AG & Co. KGaA, priority 2020, dated 2025).

What was measured:
[1] = 25° C.
[2] = 5% solution in water

Row | Structure (SMILES) | solubility in water [1] | other results
1 | O=S(=O)([O-])c1ccc(N=Nc2c(O)ccc3ccccc23)cc1.[Na+] [Acid Orange 7, sodium salt of 4-[(2-hydroxy-1-naphthyl)azo]benzene sulphonate] | more than 7 g/L | –
2 | Nc1cc(S(=O)(=O)[O-])cc2cc(S(=O)(=O)[O-])c(N=Nc3ccccc3)c(O)c12.[Na+].[Na+] [Acid Red 33, diantrium salt of 5-amino-4-hydroxy-3-(phenylazo)-naphthalene-2,7-disulphonate] | 2500 µg/mL | –
3 | O=C([O-])c1c(Cl)c(Cl)c(Cl)c(Cl)c1-c1c2c(Br)cc(=O)c(Br)c-2oc2c(Br)c(O)cc(Br)c12.O=C([O-])c1c(Cl)c(Cl)c(Cl)c(Cl)c1-c1c2c(Br)cc(=O)c(Br)c-2oc2c(Br)c(O)cc(Br)c12.[Na+].[Na+] [Acid Red 92, disodium salt of 3,4,5,6-tetrachloro-2-(1,4,5,8-tetrabromo-6-hydroxy-3-oxoxanthen-9-yl)benzoic acid] | greater than 10 g/L | –
4 | O=C([O-])C1=NN(c2ccc(S(=O)(=O)[O-])cc2)C(=O)C1N=Nc1ccc(S(=O)(=O)[O-])cc1.[Na+].[Na+].[Na+] (centres unmarked) [Acid Yellow 23, trisodium salt of 4,5-dihydro-5-oxo-1-(4-sulfophenyl)-4-((4-sulfophenyl)azo)-1H-pyrazole-3-carboxylic acid] | – | solubility in water (in words) [1]: readily soluble
5 | O=P([O-])(O)O.[K+] [Potassium dihydrogen phosphate] | – | pH value of solution in water [2]: 4.4
